Read-outs that look alike come from different tables or passages of the source.
Assay: in vivo
Settings: for concentration at 1 day / concentration at 7 day / concentration at 14 day / concentration at 21 day / concentration at 28 day / concentration at 35 day / concentration at 42 day / concentration at 49 day / concentration at 56 day / concentration at 63 day / concentration at 70 day / concentration at 77 day / concentration at 84 day: male, Wistar Han, rat, in vivo; for concentration at 1 day: day 1
How it was run: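 Three male Wistar Han rats (200-250 g), not fasted, received a single intramuscular gastrocnemius injection of prodrug suspension at 20 mg/kg EFdA equivalent. Tail-vein blood was taken into NaF/Na2EDTA, mixed 1:1 with 100 mM ammonium acetate pH 4, frozen, and analysed by LC-MS/MS.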

For `C#C[C@]1(COP(=O)(N[C@@H](Cc2cc(F)cc(F)c2)C(=O)OCCCCCCCCCCCCCCCC)Oc2ccccc2)O[C@@H](n2cnc3c(N)nc(F)nc32)C[C@@H]1O` (single isomer, unassigned) [Example 39A], the “Mean concentration of EFdA” value (day 28, single IM Example 39A 58 mg/kg) was “BQL (BQL = below quantification limit, 0.3 ng/mL for both)”, the “Mean concentration of EFdA” value (day 35, single IM Example 39A 58 mg/kg) was “BQL (BQL = below quantification limit, 0.3 ng/mL for both)” and the “Mean concentration of EFdA” value (day 42, single IM Example 39A 58 mg/kg) was “BQL (BQL = below quantification limit, 0.3 ng/mL for both)”. The “Mean concentration of EFdA” value (day 49, single IM Example 39A 58 mg/kg) was “BQL (BQL = below quantification limit, 0.3 ng/mL for both)”, the “Mean concentration of EFdA” value (day 56, single IM Example 39A 58 mg/kg) was “BQL (BQL = below quantification limit, 0.3 ng/mL for both)” and the “Mean concentration of EFdA” value (day 63, single IM Example 39A 58 mg/kg) was “BQL (BQL = below quantification limit, 0.3 ng/mL for both)”. For the same molecule, the “Mean concentration of EFdA” value (day 70, single IM Example 39A 58 mg/kg) was “BQL (BQL = below quantification limit, 0.3 ng/mL for both)”, the “Mean concentration of EFdA” value (day 77, single IM Example 39A 58 mg/kg) was “BQL (BQL = below quantification limit, 0.3 ng/mL for both)” and the “Mean concentration of EFdA” value (day 84, single IM Example 39A 58 mg/kg) was “BQL (BQL = below quantification limit, 0.3 ng/mL for both)”. For the same molecule, the concentration at 1 day (single IM Example 39A 58 mg/kg, read-out: Mean concentration of Example 39A) was 17 ng/mL, the concentration at 7 day (day 7, single IM Example 39A 58 mg/kg, read-out: Mean concentration of Example 39A) was 13.2 ng/mL and the concentration at 14 day (day 14, single IM Example 39A 58 mg/kg, read-out: Mean concentration of Example 39A) was 6.43 ng/mL. It also gave a concentration at 21 day (day 21, single IM Example 39A 58 mg/kg, read-out: Mean concentration of Example 39A) of 8.77 ng/mL, a concentration at 28 day (day 28, single IM Example 39A 58 mg/kg, read-out: Mean concentration of Example 39A) of 7.98 ng/mL and a concentration at 35 day (day 35, single IM Example 39A 58 mg/kg, read-out: Mean concentration of Example 39A) of 3.56 ng/mL. The concentration at 42 day (day 42, single IM Example 39A 58 mg/kg, read-out: Mean concentration of Example 39A) was 2.61 ng/mL, the concentration at 49 day (day 49, single IM Example 39A 58 mg/kg, read-out: Mean concentration of Example 39A) was 2.45 ng/mL and the concentration at 56 day (day 56, single IM Example 39A 58 mg/kg, read-out: Mean concentration of Example 39A) was 3.42 ng/mL. The concentration at 63 day (day 63, single IM Example 39A 58 mg/kg, read-out: Mean concentration of Example 39A) was 2.7 ng/mL, the concentration at 70 day (day 70, single IM Example 39A 58 mg/kg, read-out: Mean concentration of Example 39A) was 1.68 ng/mL and the concentration at 77 day (day 77, single IM Example 39A 58 mg/kg, read-out: Mean concentration of Example 39A) was 1.18 ng/mL. For the same molecule, the concentration at 84 day (day 84, single IM Example 39A 58 mg/kg, read-out: Mean concentration of Example 39A) was 1.39 ng/mL.

In the case of `C#C[C@]1(COP(=O)(N[C@@H](Cc2cc(F)cc(F)c2)C(=O)OCCCCCCCCCCCCCCCCCC)Oc2ccccc2)O[C@@H](n2cnc3c(N)nc(F)nc32)C[C@@H]1O` (single isomer, unassigned) [Example 40A], the “Mean concentration of EFdA” value (day 14, single IM Example 40A 60 mg/kg) is reported as “BQL (BQL = below quantification limit, 0.3 ng/ml for both)”, the “Mean concentration of EFdA” value (day 21, single IM Example 40A 60 mg/kg) is reported as “BQL (BQL = below quantification limit, 0.3 ng/ml for both)” and the “Mean concentration of EFdA” value (day 28, single IM Example 40A 60 mg/kg) is reported as “BQL (BQL = below quantification limit, 0.3 ng/ml for both)”. The “Mean concentration of EFdA” value (day 35, single IM Example 40A 60 mg/kg) was “BQL (BQL = below quantification limit, 0.3 ng/ml for both)”, the “Mean concentration of EFdA” value (day 42, single IM Example 40A 60 mg/kg) was “BQL (BQL = below quantification limit, 0.3 ng/ml for both)” and the “Mean concentration of EFdA” value (day 49, single IM Example 40A 60 mg/kg) was “BQL (BQL = below quantification limit, 0.3 ng/ml for both)”. The “Mean concentration of EFdA” value (day 56, single IM Example 40A 60 mg/kg) was “BQL (BQL = below quantification limit, 0.3 ng/ml for both)”, the “Mean concentration of EFdA” value (day 63, single IM Example 40A 60 mg/kg) was “BQL (BQL = below quantification limit, 0.3 ng/ml for both)” and the “Mean concentration of EFdA” value (day 70, single IM Example 40A 60 mg/kg) was “BQL (BQL = below quantification limit, 0.3 ng/ml for both)”. The “Mean concentration of EFdA” value (day 77, single IM Example 40A 60 mg/kg) was “BQL (BQL = below quantification limit, 0.3 ng/ml for both)”, the “Mean concentration of EFdA” value (day 84, single IM Example 40A 60 mg/kg) was “BQL (BQL = below quantification limit, 0.3 ng/ml for both)” and the concentration at 1 day (single IM Example 40A 60 mg/kg, read-out: Mean concentration of Example 40A) was 59.2 ng/mL. The concentration at 7 day (day 7, single IM Example 40A 60 mg/kg, read-out: Mean concentration of Example 40A) was 22.4 ng/mL, the concentration at 14 day (day 14, single IM Example 40A 60 mg/kg, read-out: Mean concentration of Example 40A) was 11.2 ng/mL and the concentration at 21 day (day 21, single IM Example 40A 60 mg/kg, read-out: Mean concentration of Example 40A) was 11.2 ng/mL. The concentration at 28 day (day 28, single IM Example 40A 60 mg/kg, read-out: Mean concentration of Example 40A) was 12.7 ng/mL, the concentration at 35 day (day 35, single IM Example 40A 60 mg/kg, read-out: Mean concentration of Example 40A) was 12.6 ng/mL and the concentration at 42 day (day 42, single IM Example 40A 60 mg/kg, read-out: Mean concentration of Example 40A) was 13.2 ng/mL. It also gave a concentration at 49 day (day 49, single IM Example 40A 60 mg/kg, read-out: Mean concentration of Example 40A) of 11.7 ng/mL, a concentration at 56 day (day 56, single IM Example 40A 60 mg/kg, read-out: Mean concentration of Example 40A) of 14.7 ng/mL and a concentration at 63 day (day 63, single IM Example 40A 60 mg/kg, read-out: Mean concentration of Example 40A) of 13 ng/mL. For the same molecule, the concentration at 70 day (day 70, single IM Example 40A 60 mg/kg, read-out: Mean concentration of Example 40A) was 12.2 ng/mL, the concentration at 77 day (day 77, single IM Example 40A 60 mg/kg, read-out: Mean concentration of Example 40A) was 11.7 ng/mL and the concentration at 84 day (day 84, single IM Example 40A 60 mg/kg, read-out: Mean concentration of Example 40A) was 10.3 ng/mL.

For `C#C[C@]1(COP(=O)(N[C@@H](Cc2cc(F)cc(F)c2)C(=O)OCCCCCCCCCCCCCCCCCCCCCC)Oc2ccccc2)O[C@@H](n2cnc3c(N)nc(F)nc32)C[C@@H]1O` (single isomer, unassigned) [Example 42B], the “Mean concentration of EFdA” value (day 7, single IM Example 42B 64 mg/kg) was “BQL (BQL = below quantification limit, 0.3 ng/mL for both)”, the “Mean concentration of EFdA” value (day 14, single IM Example 42B 64 mg/kg) was “BQL (BQL = below quantification limit, 0.3 ng/mL for both)” and the “Mean concentration of EFdA” value (day 21, single IM Example 42B 64 mg/kg) was “BQL (BQL = below quantification limit, 0.3 ng/mL for both)”. For the same molecule, the “Mean concentration of EFdA” value (day 28, single IM Example 42B 64 mg/kg) was “BQL (BQL = below quantification limit, 0.3 ng/mL for both)”, the “Mean concentration of EFdA” value (day 35, single IM Example 42B 64 mg/kg) was “BQL (BQL = below quantification limit, 0.3 ng/mL for both)” and the “Mean concentration of EFdA” value (day 42, single IM Example 42B 64 mg/kg) was “BQL (BQL = below quantification limit, 0.3 ng/mL for both)”. The “Mean concentration of EFdA” value (day 49, single IM Example 42B 64 mg/kg) was “BQL (BQL = below quantification limit, 0.3 ng/mL for both)”, the “Mean concentration of EFdA” value (day 56, single IM Example 42B 64 mg/kg) was “BQL (BQL = below quantification limit, 0.3 ng/mL for both)” and the “Mean concentration of EFdA” value (day 63, single IM Example 42B 64 mg/kg) was “BQL (BQL = below quantification limit, 0.3 ng/mL for both)”. The “Mean concentration of EFdA” value (day 70, single IM Example 42B 64 mg/kg) was “BQL (BQL = below quantification limit, 0.3 ng/mL for both)”, the “Mean concentration of EFdA” value (day 77, single IM Example 42B 64 mg/kg) was “BQL (BQL = below quantification limit, 0.3 ng/mL for both)” and the “Mean concentration of EFdA” value (day 84, single IM Example 42B 64 mg/kg) was “BQL (BQL = below quantification limit, 0.3 ng/mL for both)”.

From patent US20230151049A1, “Compounds Useful in HIV Therapy” (priority 2020, published 2023)
